Legend:
[1] = test system: polypeptide consisting of the amino acid sequence shown in SEQ ID NO: 3 (carbonyl reductase), cell-free extract of E. coli HB101 (pNTOM3); assay: Substrate specificity of polypeptide produced by transformant E. coli HB101 (pNTOM3); format: biochemical, Ogataea minuta var. minuta NBRC0975; conditions: 1 mM substrate, 0.25 mM NADPH, pH 6.5, 30° C., 1 min; relative to activity on CBPB as 100%
Procedure: (§1) In 100 mM phosphate buffer (pH 6.5) containing 0.33% (v/v) dimethyl sulfoxide were dissolved a carbonyl compound to be a substrate to a final concentration of 1 mM, and a coenzyme NADPH to a final concentration of 0.25 mM, respectively. Thereto was added a cell-free extract of E. coli HB101 (pNTOM4) or E. coli HB101 (pNTOM3) prepared in Example 7, and the mixture was reacted at 30° C. for 1 min. The reduction activity on each carbonyl compound was calculated from the rate of decrease in the absorbance of the reaction mixture at a wavelength of 340 nm, and shown in Table 2 as a value relative to the activity on (3S)-1-chloro-3-tert-butoxycarbonylamino-4-phenyl-2-butanone as 100%.

[2] = test system: polypeptide consisting of the amino acid sequence shown in SEQ ID NO: 4 (carbonyl reductase), cell-free extract of E. coli HB101 (pNTOM4); assay: Substrate specificity of polypeptide produced by transformant E. coli HB101 (pNTOM4); format: biochemical, Ogataea minuta var. minuta NBRC0975; conditions: 1 mM substrate, 0.25 mM NADPH, pH 6.5, 30° C., 1 min; relative to activity on CBPB as 100%
Procedure: as §1

SMILES | relative activity (%) E. coli HB101 (pNTOM3) [1] | relative activity (%) E. coli HB101 (pNTOM4) [2]
CCC(=O)Cc1ccccc1 [1-phenyl-2-butanone] | 285% | 2%
O=C1CCCc2ccccc21 [1-tetoralone] | 146% | 1%
CC(=O)c1ccccn1 [2-acetylpyridine] | 29% | 0%
CCC(C)=O [2-butanone] | 22% | 0%
O=C(CCl)c1cccc(Cl)c1 [2-chloro-1-(3′-chlorophenyl)ethanone] | 1301% | 33%
CCCCCC(C)=O [2-heptanone] | 102% | 0%
CCCCC(C)=O [2-hexanone] | 11% | 0%
O=C(CO)c1ccccc1 [2-hydroxyacetophenone] | 32% | 1%
CCCCCCC(C)=O [2-octanone] | 808% | 3%
CC(C=O)c1ccccc1 (stereo not shown) [2-phenylpropionaldehyde] | 479% | 3%
O=Cc1ccccn1 [2-pyridinecarbaldehyde] | 56% | 1%
CC(=O)c1cccnc1 [3-acetylpyridine] | 15% | 0%
O=CCCc1ccccc1 [3-phenylpropionaldehyde] | 2410% | 7%
COc1ccc(C(C)=O)cc1OC [3′,4′-dimethoxyacetophenone] | 51% | 4%
CC(=O)c1cccc(O)c1 [3′-hydroxyacetophenone] | 33% | 0%
CC(=O)c1cccc([N+](=O)[O-])c1 [3′-nitroacetophenone] | 273% | 31%
CC(=O)c1ccncc1 [4-acetylpyridine] | 98% | 0%
CC(=O)c1ccc(Cl)cc1 [4′-chloroacetophenone] | 35% | 9%
CC(=O)c1ccc(F)cc1 [4′-fluoroacetophenone] | 28% | 1%
CC(=O)c1ccc(C)cc1 [4′-methylacetophenone] | 41% | 1%
COc1ccc2c(c1)CC(=O)CC2 [7-methoxy-2-tetoralone] | 599% | 6%
CC(C)(C)OC(=O)N[C@@H](Cc1ccccc1)C(=O)CCl [CBPB, (3S)-1-chloro-3-tert-butoxycarbonylamino-4-phenyl-2-butanone] | 100% | 100%
CC(C)=O [acetone] | 47% | 0%
CC(=O)c1ccccc1 [acetophenone] | 215% | 0%
CC(=O)CC(C)=O [acetylacetone] | 23% | 0%

SMILES | relative activity (%) E. coli HB101 (pNTOM3) [1] | relative activity (%) E. coli HB101 (pNTOM4) [2]
CC(=O)c1cnccn1 [acetylpyrazine] | 185% | 0%
O=Cc1ccccc1 [benzaldehyde] | 81% | 1%
O=C(c1ccccc1)C(O)c1ccccc1 (stereo not shown) [benzoin] | 4018% | 5%
CC(=O)CC(=O)OCc1ccccc1 [benzyl acetoacetate] | 883% | 4%
CC(=O)CCc1ccccc1 [benzylacetone] | 66% | 0%
O=C1CCCC1 [cyclopentanone] | 8% | 0%
CC(=O)C(C)=O [diacetyl] | 444% | 5%
CCOC(=O)C(Cl)C(=O)c1ccccc1 (stereo not shown) [ethyl 2-chloro-3-oxo-3-phenylpropionate] | 716% | 5%
CCOC(=O)C(Cl)C(C)=O (stereo not shown) [ethyl 2-chloroacetoacetate] | 3309% | 40%
C=CC(C(C)=O)C(=O)OCC (stereo not shown) [ethyl 2-eteneacetoacetate] | 2013% | 10%
CCOC(=O)C(C)C(C)=O (stereo not shown) [ethyl 2-methylacetoacetate] | 619% | 4%
CCOC(=O)C(=O)CCc1ccccc1 [ethyl 2-oxo-4-phenylbutyrate] | 127% | 106%
CCCCCCCCC(=O)C(=O)OCC [ethyl 2-oxodecanoate] | 985% | 5%
CCOC(=O)C1CCC(=O)C1 (stereo not shown) [ethyl 3-oxocyclopentanecarboxylate] | 484% | 12%
CCOC(=O)CC(=O)COC(C)=O [ethyl 4-acetoxyacetoacetate] | 465% | 1%
CCOC(=O)CC(=O)CN=[N+]=[N-] [ethyl 4-azideacetoacetate] | 659% | 1%
CCOC(=O)CC(=O)COCc1ccccc1 [ethyl 4-benzyloxyacetoacetate] | 1259% | 8%
CCOC(=O)CC(=O)CBr [ethyl 4-bromoacetoacetate] | 476% | 7%
CCOC(=O)CC(=O)CCl [ethyl 4-chloroacetoacetate] | 4547% | 22%
CCOC(=O)CC(C)=O [ethyl acetoacetate] | 137% | 0%
CCOC(=O)CC(=O)c1ccccc1 [ethyl benzoylacetate] | 1233% | 0%
CCOC(=O)C(=O)c1ccccc1 [ethyl benzoylformate] | 296% | 20%
CCOC(=O)C(C)=O [ethyl pyruvate] | 1067% | 23%
O=CCCCC=O [glutaraldehyde] | 80% | 1%
CC(=O)CO [hydroxyacetone] | 51% | 0%

Reference: US7915022B2, “Carbonyl reductase, gene thereof and method of using the same” (priority 2004, dated 2011)
